Measurements from ChEMBL document CHEMBL4184292, “Synthetic strigolactone analogues reveal anti-cancer activities on hepatocellular carcinoma cells” (Bioorg Med Chem Lett, 2018).
Active and inactive are the calls of the source. The rule behind the calls is not given here.

Tests used:
HepG2 [1] = experiment: Induction of apoptosis in human HepG2 cells assessed as late apoptotic cells at 80 uM after 24 hrs by Annexin-V/7AAD staining based flow cytometry (reference value: 0.2 to 0.4%); type: functional
HepG2 [2] = experiment: Induction of apoptosis in human HepG2 cells assessed as late apoptotic cells at 60 uM after 24 hrs by Annexin-V/7AAD staining based flow cytometry (reference value: 0.2 to 0.4%); type: functional
HepG2 [3] = experiment: Induction of apoptosis in human HepG2 cells assessed as early apoptotic cells at 80 uM after 2 hrs by Annexin-V/7AAD staining based flow cytometry (reference value: 3.8 to 4.2 %); type: functional
HepG2 [4] = experiment: Induction of apoptosis in human HepG2 cells assessed as early apoptotic cells at 60 uM after 24 hrs by Annexin-V/7AAD staining based flow cytometry (reference value: 5.1 to 12.5 %); type: functional
HepG2 [5] = experiment: Induction of apoptosis in human HepG2 cells assessed as late apoptotic cells at 40 uM after 24 hrs by Annexin-V/7AAD staining based flow cytometry (reference value: 0.2 to 0.4%); type: functional
HepG2 [6] = experiment: Cytotoxicity against human HepG2 cells assessed as reduction in cell viability at 80 uM after 24 hrs by WST1 assay relative to control; type: functional
HepG2 [7] = experiment: Cytotoxicity against human HepG2 cells assessed as reduction in cell viability at 80 uM after 4 hrs by WST1 assay relative to control; type: functional
HepG2 [8] = experiment: Cytotoxicity against human HepG2 cells assessed as reduction in cell viability at 80 uM after 8 hrs by WST1 assay relative to control; type: functional
[9] = Cytotoxicity against BHK cells assessed as reduction in cell viability at 80 uM after 48 hrs by WST1 assay relative to control; type: cell-based, Mesocricetus auratus; conditions: hamster
HepG2 [10] = experiment: Induction of apoptosis in human HepG2 cells assessed as late apoptotic cells at 80 uM after 6 hrs by Annexin-V/7AAD staining based flow cytometry (reference value: 0.2 to 0.7 %); type: functional
HepG2 [11] = experiment: Antimigratory activity in human HepG2 cells at 80 uM after 24 hrs by wound-scratch assay; type: functional, cell-based
HepG2 [12] = experiment: Cytotoxicity against human HepG2 cells assessed as reduction in cell viability at 40 uM after 24 hrs by WST1 assay; type: functional, cell-based
HepG2 [13] = experiment: Induction of apoptosis in human HepG2 cells assessed as early apoptotic cells at 80 uM after 24 hrs by Annexin-V/7AAD staining based flow cytometry (reference value: 5.1 to 12.5 %); type: functional
HepG2 [14] = experiment: Induction of apoptosis in human HepG2 cells assessed as early apoptotic cells at 20 uM after 24 hrs by Annexin-V/7AAD staining based flow cytometry (reference value: 5.1 to 12.5 %); type: functional
HepG2 [15] = experiment: Induction of apoptosis in human HepG2 cells assessed as early apoptotic cells at 40 uM after 24 hrs by Annexin-V/7AAD staining based flow cytometry (reference value: 5.1 to 12.5 %); type: functional
Jurkat = experiment: Cytotoxicity against human Jurkat cells assessed as reduction in cell viability after 24 hrs by WST1 assay; type: functional, cell-based
HepG2 [16] = experiment: Induction of apoptosis in human HepG2 cells assessed as late apoptotic cells at 20 uM after 24 hrs by Annexin-V/7AAD staining based flow cytometry (reference value: 0.2 to 0.4%); type: functional
HepG2 [17] = experiment: Cytotoxicity against human HepG2 cells assessed as reduction in cell viability at 80 uM after 12 hrs by WST1 assay relative to control; type: functional
HepG2 [18] = experiment: Cytotoxicity against human HepG2 cells assessed as reduction in cell viability after 24 hrs by WST1 assay; type: functional, cell-based; conditions: for IC50: HepG2, 24 h
HepG2 [19] = experiment: Induction of apoptosis in human HepG2 cells assessed as early apoptotic cells at 80 uM after 6 hrs by Annexin-V/7AAD staining based flow cytometry (reference value: 3.8 to 4.2 %); type: functional
PC-3 = experiment: Cytotoxicity against human PC3 cells assessed as reduction in cell viability after 24 hrs by WST1 assay; type: functional, cell-based; conditions: for IC50: PC-3, 24 h
HepG2 [20] = experiment: Cytotoxicity against human HepG2 cells assessed as reduction in cell viability at 80 uM by WST1 assay; type: functional, cell-based; conditions: TDE = time-dependent effect
HepG2 [21] = experiment: Induction of apoptosis in human HepG2 cells assessed as late apoptotic cells at 80 uM after 2 hrs by Annexin-V/7AAD staining based flow cytometry (reference value: 0.2 to 0.7 %); type: functional
HepG2 [22] = experiment: Antimigratory activity in human HepG2 cells at 100 uM after 24 hrs by wound-scratch assay; type: functional, cell-based
HepG2 [23] = experiment: Growth inhibition of human HepG2 cells at 100 uM after 24 hrs; type: functional, cell-based

COC(=O)/C(=C/OC1C=C(C)C(=O)O1)c1ccc(Cl)cc1 (stereo not drawn) showed an Activity (HepG2 [1]) of 0.5%, an Activity (HepG2 [2]) of 0.5% and an Activity (HepG2 [3]) of 4.3%. The Activity (HepG2 [4]) was 16.1%, the Activity (HepG2 [5]) was 0.4% and the Activity (HepG2 [6]) was 61 - 61.4%. The Activity (HepG2 [7]) was 11%, the Activity (HepG2 [8]) was 19% and the Activity [9] was 23%. For the same compound, the Activity (HepG2 [10]) was 1.5%, the Activity (HepG2 [11]) was “Active” and the Activity (HepG2 [12]) was “Active”. It also gave an Activity (HepG2 [13]) of 20.9%, an Activity (HepG2 [14]) of 9.5% and an Activity (HepG2 [15]) of 11.3%. For the same compound, the Activity (Jurkat) was “Dose-dependent effect”, the IC50 (Jurkat) was 44.7 µM and the Activity (HepG2 [16]) was 0.2%. For the same compound, the Activity (HepG2 [17]) was 26%, the Activity (HepG2 [18]) was “Dose-dependent effect” and the IC50 (HepG2 [18]) was 67.8 µM. The Activity (HepG2 [19]) was 13.7%, the Activity (PC-3) was “Dose-dependent effect” and the IC50 (PC-3) was 56.6 µM. For the same compound, the Activity (HepG2 [20]) was “Tde” and the Activity (HepG2 [21]) was 0.9%.
In the case of CC1=CC(Oc2ccc(F)cc2Br)OC1=O (stereo not drawn), the Activity (HepG2 [6]) is reported as 39% and the IC50 (HepG2 [18]) is reported as 90.3 µM.
With CC1=CC(Oc2cc(Cl)cc(Cl)c2)OC1=O (stereo not drawn) the Activity (HepG2 [6]) was 40.7% and the IC50 (HepG2 [18]) was 89.5 µM.
For COC(=O)/C(=C/OC1C=C(C)C(=O)O1)c1ccccc1 (stereo not drawn), the Activity (HepG2 [1]) was 0.2%, the Activity (HepG2 [2]) was 0.4% and the Activity (HepG2 [3]) was 3.8%. The Activity (HepG2 [4]) was 18.5%, the Activity (HepG2 [5]) was 0.2% and the Activity (HepG2 [6]) was 63.4 - 73%. It also gave an Activity (HepG2 [7]) of 13%, an Activity (HepG2 [8]) of 20% and an Activity [9] of 18%. The Activity (HepG2 [10]) was 1.2%, the Activity (HepG2 [11]) was “Active” and the Activity (HepG2 [13]) was 26.6%. The Activity (HepG2 [14]) was 9.5%, the Activity (HepG2 [15]) was 13.1% and the Activity (Jurkat) was “Dose-dependent effect”. For the same compound, the IC50 (Jurkat) was 46.4 µM, the Activity (HepG2 [16]) was 0.2% and the Activity (HepG2 [17]) was 31%. The Activity (HepG2 [18]) was “Dose-dependent effect”, the IC50 (HepG2 [18]) was 63.5 µM and the Activity (HepG2 [19]) was 13.3%. The Activity (PC-3) was “Dose-dependent effect”, the IC50 (PC-3) was 55.1 µM and the Activity (HepG2 [20]) was “Tde”. It also gave an Activity (HepG2 [21]) of 1.7%.
With CC1=CC(=O)C(C(C)C)=CC1=O [THYMOQUINONE] the Activity (HepG2 [1]) was 3.3%, the Activity (HepG2 [22]) was “Active” and the “growth inhibition (GI)” value (HepG2 [23]) was “Active”. The Activity (HepG2 [13]) was 91.8%.
In the case of COC(=O)/C(=C/OC1C=C(C)C(=O)O1)c1ccc(OC)cc1 (stereo not drawn), the Activity (HepG2 [6]) is reported as 50.1%, the Activity [9] is reported as 33% and the Activity (HepG2 [12]) is reported as “Active”. It also gave an IC50 (HepG2 [18]) of 82.1 µM.
In the case of CC1=CC(Oc2ccc(Cl)c(Cl)c2)OC1=O (stereo not drawn), the Activity (HepG2 [6]) is reported as 43.5%, the Activity (HepG2 [12]) is reported as “Active” and the IC50 (HepG2 [18]) is reported as 85.9 µM.
CC1=CC(Oc2c(Br)cccc2C#N)OC1=O (stereo not drawn) gave an Activity (HepG2 [6]) of 43.8% and an IC50 (HepG2 [18]) of 87.6 µM.
